Patent publication US7649002B2, “(3,5-dimethylpiperidin-1yl)(4-phenylpyrrolidin-3-yl)methanone derivatives as MCR4 agonists” (Pfizer Inc, priority 2004, dated 2010)
Like-named read-outs stand apart in the source and are kept apart here.

Molecular target: T1, human MCR4 receptor (Homo sapiens, UniProt P32245)
T1 construct: expressed in transfected cells
Experiment: MCR4 improved functional assay (Protocol E): CHO-K1-MC4R-CRE-β-lactamase reporter
Type: cell-based
Description: (ii) MCR5 Standard Functional Assay Methodology and MCR4 Improved Functional Assay Methodology [Assay Protocol D and E Respectively] […] These cell lines were engineered using protocols akin to those outlined by Zaccolo et al (Zaccolo, M., (2000) Nature, 2(1); 25-29). Compound-induced activation of the MCR5 or MCR4 receptors in these two cell lines stimulated the production, and intracellular accumulation, of the enzyme β-lactamase. The quantity of β-lactamase enzyme produced was directly proportional to the degree to which the test compound activated the MCR5 or MCR4 receptors present on these cells and was quantified using the P-lactamase gene reporter analysis kit that is commercially available from Invitrogen Life Technologies. An in-depth description of this technology and assay protocols are available from the Invitrogen web site (www.invitrogen.com). The protocol listed below provides a summary of that assay methodology. The quantity of β-lactamase enzyme produced by compound-induced activation of the MCR5 or MCR4 receptors expressed in these cell lines was quantified using a LjI Biosystems Analyst™ HT 96.384 plate reader set to excite at a wave length of 405 nm, and measure the energy emitted at wave lengths of 450 nm and 530 nm. Cellular responses were quantified by dividing the measured energy emitted at a wavelength of 450 nm by the measured energy emitted at a wavelength of 530 nm. […] CCF4-AM was dissolved in 100% DMSO to give a final solution concentration of 1 mM. This solution was termed Solution A. Probenecid was dissolved in 200 mM NaOH to give a final solution concentration of 200 mM. This solution was termed Solution D. Composition of the β-lactamase assay dye solution: for 1072 μL of assay dye solution combine: 12 μL of Solution A, 60 μL of Solution B, 925 μL of Solution C and 75 μL of Solution D. […] Cells were grown in T225 vent cap flasks containing 50 ml of growth medium and maintained in a cell incubator at a temperature of 37° C. and in an environment containing 5% CO2. The composition of the growth medium for the CHO-K1-MC5R-CRE-β-lactamase was 90% v/v DMEM supplemented with; Glutamax-1, 25 mM HEPES, 10% v/v foetal calf serum (FCS), 1 mM sodium pyruvate, 0.1 mM non essential amino acids and 800 μg/ml genetic in. For the CHO-K1-MC4R-CRE-β-lactamase this growth media was further supplemented with […] Zeocin. Cells were harvested when they reached 80-90% confluency by first removing the existing growth medium and then washing with PBS that had been pre-warmed to a temperature of 37° C. This PBS was then removed and 5 ml of cell dissociation fluid added to the flask. These cells were incubated for 5 minutes in a cell incubator set at a temperature of 37° C. and in an environment containing 5% CO2 to detach the cells. When cells were detached, pre-warmed growth media was added, the cells re-suspended and mixed gently to achieve a single cell suspension by pipetting. This cell suspension was then used for experimentation, or transferred into a new T225 flask to perpetuate the cell culture. […] For each assay the cell plates were then retuned to a cell incubator maintained at a temperature of 37° C. and in an environment containing 5% CO2 overnight before performing the assay on the second assay day. […] For the MCR4 improved functional assay methodology the solution of cyclohexamide was not added. Subsequently, 10 μL of the test compound solution was transferred to the assay plate. The assay plate was then transferred to a cell incubator, set at 37° C. and in an environment containing 5% CO2, and left for 4 hours for the MCR4 improved assay methodology, or 5 hours for the MCR5 standard assay methodology. After this incubation period the plate was removed from the incubator, 10 μL of the […] assay dye solution was added to each well and then the plate returned to the cell incubator.

[1] = Protocols C or E, read-out: functional potency at the MC4 receptor (EC50)

T1 sequence (P32245 whole entry): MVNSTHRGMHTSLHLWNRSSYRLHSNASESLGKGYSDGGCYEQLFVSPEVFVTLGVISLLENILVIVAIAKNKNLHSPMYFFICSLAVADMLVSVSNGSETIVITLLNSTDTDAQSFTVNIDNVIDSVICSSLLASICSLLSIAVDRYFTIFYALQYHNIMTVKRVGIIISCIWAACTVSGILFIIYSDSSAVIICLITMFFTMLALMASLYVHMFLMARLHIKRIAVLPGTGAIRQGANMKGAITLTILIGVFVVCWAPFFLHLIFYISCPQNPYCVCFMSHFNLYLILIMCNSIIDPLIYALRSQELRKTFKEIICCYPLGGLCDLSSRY

Row | EC50 [1] [nM] | EC50 (Table 6, read-out: MCR4 EC50) [nM] | Structure (SMILES) | EC50 (MCR4 EC50 (nM), Table 6) [nM] | EC50 (functional potency at the MC4 receptor (EC50), Protocols C or E) [nM]
1 | < 10 |  | C[C@@H]1CN(C(=O)[C@@H]2CN(C(C)(C)C)C[C@H]2c2ccc(F)cc2F)C[C@H](C)[C@@]1(O)c1ccccc1 [Example 1, (3R,4R,5S)-1-{[(3S,4R)-1-tert-Butyl-4-(24-difluorophenyl)pyrrolidin-3-yl]carbonyl}-3,5-dimethyl-4-phenylpiperidin-4-ol] |  | 
2 | < 10 | 9.6 | C[C@@H]1CN(C(=O)[C@@H]2CN(C(C)(C)C)C[C@H]2c2ccc(F)cc2F)C[C@H](C)[C@@]1(O)c1ccccc1.Cl [Example 5, (3R,4R,5S)-1-{[(3S,4R)-1-tert-Butyl-4-(2,4-difluorophenyl)pyrrolidin-3-yl]carbonyl}-3,5-dimethyl-4-phenylpiperidin-4-ol hydrochloride] |  | 
3 |  |  | CC(C)N1C[C@@H](C(=O)N2C[C@@H](C)[C@](O)(c3ccccc3)[C@@H](C)C2)[C@H](c2ccc(F)cc2F)C1.Cl [Example 6, (3R,4R,5S)-1-{[(3S,4R)-4-(2,4-Difluorophenyl)-1-isopropylpyrrolidin-3-yl]carbonyl}-3,5-dimethyl-4-phenylpiperidin-4-ol hydrochloride] | 19 | < 50
4 | < 150 | 75 | C[C@@H]1CN(C(=O)[C@@H]2CNC[C@H]2c2ccc(F)cc2F)C[C@H](C)[C@@]1(O)c1ccc(F)cc1.Cl [Example 12, (3R,4R,5S)-1-{[(3S,4R)-4-(2,4-difluorophenyl)pyrrolidin-3-yl]carbonyl}-4-(4-fluorophenyl)-3,5-dimethylpiperidin-4-ol hydrochloride] |  | 
5 | < 50 | 27 | C[C@@H]1CN(C(=O)[C@@H]2CN(C(C)(C)C)C[C@H]2c2ccc(F)cc2F)C[C@H](C)[C@@]1(O)c1ccc(Cl)cc1.Cl [Example 13, (3R,4R,5S)-1-{[(3S,4R)-1-tert-butyl-4-(2,4-difluorophenyl)pyrrolidin-3-yl]carbonyl}-4-(4-chlorophenyl)-3,5-dimethylpiperidin-4-ol hydrochloride] |  | 
6 | < 10 | 3.6 | C[C@@H]1CN(C(=O)[C@@H]2CN(c3ccccn3)C[C@H]2c2ccc(F)cc2F)C[C@H](C)[C@@]1(O)c1ccccc1.Cl [Example 31, (3R,4R,5S)-1-{[(3S,4R)-4-(2,4-difluorophenyl)-1-pyridin-2-ylpyrrolidin-3-yl]carbonyl}-3,5-dimethyl-4-phenylpiperidin-4-ol hydrochloride] |  | 
7 | < 10 | 1.5 | C[C@@H]1CN(C(=O)[C@@H]2CN(c3cccnn3)C[C@H]2c2ccc(F)cc2F)C[C@H](C)[C@@]1(O)c1ccccc1.Cl [Example 35, (3R,4R,5S)-1-{[(3S,4R)-4-(2,4-difluorophenyl)-1-pyridazin-3-ylpyrrolidin-3-yl]carbonyl}-3,5-dimethyl-4-phenylpiperidin-4-ol hydrochloride] |  | 
